From ChEMBL document CHEMBL1201862, “PubChem BioAssay data set” (2004)
pIC50: −log10 of the molar value. Activity calls are given as the source filed them.

Experiments:
[1] = target: T1, Sentrin-specific protease 8 (Homo sapiens, UniProt Q96LD8); assay: inhibition of human SENP8 cleavage activity – biochemical, luminescence, SAR follow-up (AID 504501); assay type: functional
T1 sequence (Q96LD8 whole entry): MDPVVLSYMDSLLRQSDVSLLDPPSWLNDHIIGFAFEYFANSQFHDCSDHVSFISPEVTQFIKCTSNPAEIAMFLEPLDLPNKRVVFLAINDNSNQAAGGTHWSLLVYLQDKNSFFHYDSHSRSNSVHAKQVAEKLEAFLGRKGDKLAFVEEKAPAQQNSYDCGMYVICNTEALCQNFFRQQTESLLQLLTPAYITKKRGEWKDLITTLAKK

[2] = target: Serine/threonine-protein kinase TAO1 (Homo sapiens, UniProt Q7L7X3); assay type: functional
[3] = target: Tyrosine-protein kinase receptor UFO (Homo sapiens, UniProt P30530); assay type: functional
[4] = target: Dual specificity protein kinase CLK4 (Homo sapiens, UniProt Q9HAZ1); assay type: functional
[5] = target: Rho-associated protein kinase 2 (Homo sapiens, UniProt O75116); assay type: functional
[6] = target: Death-associated protein kinase 3 (Homo sapiens, UniProt O43293); assay type: functional;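 further: measured as one member of a kinome-wide profiling panel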
[7] = target: Ribosomal protein S6 kinase alpha-5 (Homo sapiens, UniProt O75582); assay type: functional
[8] = target: MAP kinase-activated protein kinase 5 (Homo sapiens, UniProt Q8IW41); assay type: functional;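 further: measured as one member of a kinome panel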
[9] = target: Serine/threonine-protein kinase MRCK alpha (Homo sapiens, UniProt Q5VT25); assay type: functional
Chain of Serine/threonine-protein kinase MRCK alpha (Q5VT25 whole entry): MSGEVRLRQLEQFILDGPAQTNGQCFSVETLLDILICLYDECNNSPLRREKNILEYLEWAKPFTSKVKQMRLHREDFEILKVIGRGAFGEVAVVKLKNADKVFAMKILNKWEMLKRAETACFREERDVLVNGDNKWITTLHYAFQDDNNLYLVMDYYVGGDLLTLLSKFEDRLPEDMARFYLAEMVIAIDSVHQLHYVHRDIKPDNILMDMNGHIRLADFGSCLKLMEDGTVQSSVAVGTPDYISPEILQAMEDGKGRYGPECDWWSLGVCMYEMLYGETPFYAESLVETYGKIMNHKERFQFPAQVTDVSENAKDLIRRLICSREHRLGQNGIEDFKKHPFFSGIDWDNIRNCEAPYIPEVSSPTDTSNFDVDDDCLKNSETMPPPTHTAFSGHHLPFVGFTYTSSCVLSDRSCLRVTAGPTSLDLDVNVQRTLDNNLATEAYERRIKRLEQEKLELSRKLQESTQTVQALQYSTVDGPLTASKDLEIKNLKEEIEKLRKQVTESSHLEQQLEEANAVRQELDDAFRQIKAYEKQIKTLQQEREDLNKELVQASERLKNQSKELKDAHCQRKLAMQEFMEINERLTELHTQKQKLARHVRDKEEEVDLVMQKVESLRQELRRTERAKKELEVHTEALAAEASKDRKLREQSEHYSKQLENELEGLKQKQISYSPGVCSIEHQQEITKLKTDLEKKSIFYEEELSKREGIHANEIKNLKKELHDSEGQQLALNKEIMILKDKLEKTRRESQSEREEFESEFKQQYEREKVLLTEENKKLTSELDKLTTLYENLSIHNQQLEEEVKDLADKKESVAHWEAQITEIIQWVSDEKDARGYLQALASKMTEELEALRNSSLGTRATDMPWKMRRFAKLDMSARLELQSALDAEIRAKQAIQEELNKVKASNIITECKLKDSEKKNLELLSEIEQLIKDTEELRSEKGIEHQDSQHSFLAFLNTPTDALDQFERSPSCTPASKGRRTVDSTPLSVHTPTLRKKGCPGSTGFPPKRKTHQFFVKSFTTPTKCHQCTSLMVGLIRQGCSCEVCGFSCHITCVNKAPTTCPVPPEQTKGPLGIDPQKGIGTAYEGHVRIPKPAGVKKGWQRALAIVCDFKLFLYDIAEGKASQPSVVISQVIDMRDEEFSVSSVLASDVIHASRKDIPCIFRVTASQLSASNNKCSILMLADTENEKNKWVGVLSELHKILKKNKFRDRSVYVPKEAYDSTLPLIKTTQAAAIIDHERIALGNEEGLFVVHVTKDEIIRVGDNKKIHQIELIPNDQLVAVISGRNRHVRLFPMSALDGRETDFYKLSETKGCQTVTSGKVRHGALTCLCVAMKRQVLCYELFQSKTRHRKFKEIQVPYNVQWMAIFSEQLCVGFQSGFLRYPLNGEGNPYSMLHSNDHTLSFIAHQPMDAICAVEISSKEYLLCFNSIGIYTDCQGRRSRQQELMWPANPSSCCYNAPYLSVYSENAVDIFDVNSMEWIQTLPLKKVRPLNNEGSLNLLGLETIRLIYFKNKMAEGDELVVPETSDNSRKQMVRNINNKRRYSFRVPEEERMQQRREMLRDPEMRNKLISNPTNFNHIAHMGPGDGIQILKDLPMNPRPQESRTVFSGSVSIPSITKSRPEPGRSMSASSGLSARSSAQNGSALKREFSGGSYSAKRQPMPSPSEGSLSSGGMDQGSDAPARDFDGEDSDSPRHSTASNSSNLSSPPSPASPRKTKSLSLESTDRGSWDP

Insulin receptor = Insulin receptor (Homo sapiens, UniProt P06213); assay type: functional;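 further: insulin receptor kinase tested as one member of a kinome-wide kinase panel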
[10] = target: RAC-alpha serine/threonine-protein kinase (Homo sapiens, UniProt P31749); assay type: functional;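 further: AKT1 affinity measured as one member of a kinome-wide kinase profiling panel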
[11] = target: Protein kinase C iota type (Homo sapiens, UniProt P41743); assay type: functional;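 further: measured within a kinome-wide kinase panel, PRKCI as panel member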
[12] = target: cAMP-dependent protein kinase catalytic subunit PRKX (Homo sapiens, UniProt P51817); assay type: functional
Chain of cAMP-dependent protein kinase catalytic subunit PRKX (P51817 whole entry): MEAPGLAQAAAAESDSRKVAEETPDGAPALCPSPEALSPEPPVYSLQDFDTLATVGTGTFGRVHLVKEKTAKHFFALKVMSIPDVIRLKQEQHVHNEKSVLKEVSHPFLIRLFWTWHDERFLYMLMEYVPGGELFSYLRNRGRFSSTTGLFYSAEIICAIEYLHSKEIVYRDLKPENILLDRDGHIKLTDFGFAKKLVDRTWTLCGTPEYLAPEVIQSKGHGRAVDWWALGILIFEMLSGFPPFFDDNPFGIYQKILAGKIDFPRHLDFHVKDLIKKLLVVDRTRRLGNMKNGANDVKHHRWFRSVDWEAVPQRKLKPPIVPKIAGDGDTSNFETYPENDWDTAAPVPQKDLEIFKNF

[13] = target: Dual specificity tyrosine-phosphorylation-regulated kinase 4 (Homo sapiens, UniProt Q9NR20); assay type: functional
[14] = target: Maternal embryonic leucine zipper kinase (Homo sapiens, UniProt Q14680); assay type: functional
[15] = target: Mitogen-activated protein kinase 12 (Homo sapiens, UniProt P53778); assay type: functional;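 further: measured as one member of a kinome-wide kinase profiling panel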
Chain of Mitogen-activated protein kinase 12 (P53778 whole entry): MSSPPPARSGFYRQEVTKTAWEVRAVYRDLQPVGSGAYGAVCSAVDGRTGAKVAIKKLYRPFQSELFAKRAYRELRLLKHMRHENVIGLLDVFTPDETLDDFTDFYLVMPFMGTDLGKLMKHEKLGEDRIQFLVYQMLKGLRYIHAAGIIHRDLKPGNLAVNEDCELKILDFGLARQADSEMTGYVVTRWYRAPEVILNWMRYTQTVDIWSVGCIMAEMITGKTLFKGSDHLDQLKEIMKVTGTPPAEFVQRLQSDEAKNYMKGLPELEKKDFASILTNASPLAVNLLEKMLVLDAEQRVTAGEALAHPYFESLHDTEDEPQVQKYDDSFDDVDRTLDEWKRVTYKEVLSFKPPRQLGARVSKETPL

[16] = target: Serine/threonine-protein kinase Nek4 (Homo sapiens, UniProt P51957); assay type: functional
[17] = target: Calcium/calmodulin-dependent protein kinase type II subunit delta (Homo sapiens, UniProt Q13557); assay type: functional
[18] = target: Proto-oncogene tyrosine-protein kinase Src (Homo sapiens, UniProt P12931); assay type: functional;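 further: SRC entry within a kinome-wide kinase profiling panel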
Chain of Proto-oncogene tyrosine-protein kinase Src (P12931 2-536 limits assumed): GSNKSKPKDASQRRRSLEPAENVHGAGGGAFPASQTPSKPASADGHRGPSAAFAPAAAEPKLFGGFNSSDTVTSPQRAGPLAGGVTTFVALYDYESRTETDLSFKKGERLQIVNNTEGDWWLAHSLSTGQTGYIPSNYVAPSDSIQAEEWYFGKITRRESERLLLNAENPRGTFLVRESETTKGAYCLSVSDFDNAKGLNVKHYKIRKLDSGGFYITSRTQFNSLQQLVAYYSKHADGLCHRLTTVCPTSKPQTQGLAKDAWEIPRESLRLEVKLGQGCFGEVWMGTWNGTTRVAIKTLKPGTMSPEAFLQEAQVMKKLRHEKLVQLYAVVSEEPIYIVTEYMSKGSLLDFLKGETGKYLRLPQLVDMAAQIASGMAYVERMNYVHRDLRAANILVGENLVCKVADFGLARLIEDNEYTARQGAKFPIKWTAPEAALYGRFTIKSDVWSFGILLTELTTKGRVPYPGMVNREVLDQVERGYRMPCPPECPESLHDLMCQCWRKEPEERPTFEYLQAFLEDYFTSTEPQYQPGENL

[19] = target: cGMP-dependent protein kinase 1 (Homo sapiens, UniProt Q13976); assay type: functional;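 further: value from a kinome panel screen with PRKG1 as the panel member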
[20] = target: MAP kinase-activated protein kinase 2 (Homo sapiens, UniProt P49137); assay type: functional;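 further: measured as one member of a kinome-wide kinase panel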
[21] = target: Protein kinase C gamma type (Homo sapiens, UniProt P05129); assay type: functional
[22] = target: Serine/threonine-protein kinase 3 (Homo sapiens, UniProt Q13188); assay type: functional;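 further: measured as one member of a kinome-wide kinase panel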
Hexokinase-1 = Hexokinase-1 (Homo sapiens, UniProt P19367); assay: HK1 enzyme activation by HKDC1 hits – biochemical, selectivity assay for HKDC1 activator project, dose response (AID 504762); assay type: functional
Chain of Hexokinase-1 (P19367 whole entry): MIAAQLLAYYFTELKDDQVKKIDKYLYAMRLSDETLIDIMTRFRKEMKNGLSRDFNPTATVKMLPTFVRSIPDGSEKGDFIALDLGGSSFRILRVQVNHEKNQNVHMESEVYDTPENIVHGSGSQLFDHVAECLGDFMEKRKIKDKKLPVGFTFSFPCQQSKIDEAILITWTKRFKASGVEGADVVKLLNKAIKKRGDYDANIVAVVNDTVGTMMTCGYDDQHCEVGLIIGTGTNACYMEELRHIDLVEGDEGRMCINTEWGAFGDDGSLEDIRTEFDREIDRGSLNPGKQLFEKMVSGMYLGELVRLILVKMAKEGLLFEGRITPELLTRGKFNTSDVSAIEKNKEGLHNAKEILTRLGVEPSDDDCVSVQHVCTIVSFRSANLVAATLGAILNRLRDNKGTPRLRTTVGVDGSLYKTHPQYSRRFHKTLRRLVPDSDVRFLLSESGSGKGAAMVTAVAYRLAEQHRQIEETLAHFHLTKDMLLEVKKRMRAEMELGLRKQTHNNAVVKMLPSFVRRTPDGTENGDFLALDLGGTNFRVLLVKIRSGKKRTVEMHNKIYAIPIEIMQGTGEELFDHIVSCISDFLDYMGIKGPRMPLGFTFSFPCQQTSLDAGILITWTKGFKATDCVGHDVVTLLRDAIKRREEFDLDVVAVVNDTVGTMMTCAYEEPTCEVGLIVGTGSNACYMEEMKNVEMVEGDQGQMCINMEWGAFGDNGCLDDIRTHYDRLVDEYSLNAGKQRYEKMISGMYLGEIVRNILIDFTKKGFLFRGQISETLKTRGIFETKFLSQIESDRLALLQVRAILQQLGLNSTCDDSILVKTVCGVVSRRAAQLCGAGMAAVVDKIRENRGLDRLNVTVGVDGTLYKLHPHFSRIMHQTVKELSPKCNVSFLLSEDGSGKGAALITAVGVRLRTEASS

Hexokinase HKDC1 [23] = target: T2, Hexokinase HKDC1 (Homo sapiens, UniProt Q2TB90); assay: activation of HKDC1 glucose phosphorylation – biochemical, W721R variant, dose response (AID 504730); assay type: functional
T2 sequence (Q2TB90 whole entry): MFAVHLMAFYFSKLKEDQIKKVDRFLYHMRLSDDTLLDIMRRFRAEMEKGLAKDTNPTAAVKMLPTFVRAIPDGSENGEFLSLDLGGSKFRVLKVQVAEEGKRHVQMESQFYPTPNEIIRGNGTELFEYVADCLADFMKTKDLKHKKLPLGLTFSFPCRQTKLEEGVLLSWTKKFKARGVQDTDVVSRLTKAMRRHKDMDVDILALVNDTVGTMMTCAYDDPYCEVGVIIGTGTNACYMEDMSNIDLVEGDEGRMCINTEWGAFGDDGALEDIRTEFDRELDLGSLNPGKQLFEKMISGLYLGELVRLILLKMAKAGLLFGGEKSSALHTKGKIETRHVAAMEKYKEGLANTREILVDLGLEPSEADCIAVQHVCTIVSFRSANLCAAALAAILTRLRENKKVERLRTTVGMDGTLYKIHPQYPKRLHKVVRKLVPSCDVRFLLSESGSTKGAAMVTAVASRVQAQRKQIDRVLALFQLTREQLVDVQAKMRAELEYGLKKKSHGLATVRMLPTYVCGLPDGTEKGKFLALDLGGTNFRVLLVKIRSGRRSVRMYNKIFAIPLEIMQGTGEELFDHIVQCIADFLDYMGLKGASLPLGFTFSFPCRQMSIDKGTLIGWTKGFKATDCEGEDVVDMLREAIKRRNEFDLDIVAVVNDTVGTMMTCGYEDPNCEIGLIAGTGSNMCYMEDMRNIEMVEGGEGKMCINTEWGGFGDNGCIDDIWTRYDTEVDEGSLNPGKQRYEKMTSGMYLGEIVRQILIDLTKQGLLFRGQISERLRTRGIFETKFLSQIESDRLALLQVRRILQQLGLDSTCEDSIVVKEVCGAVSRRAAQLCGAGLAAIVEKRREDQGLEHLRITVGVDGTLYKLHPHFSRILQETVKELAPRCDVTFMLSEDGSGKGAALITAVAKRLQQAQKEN

BJ = assay: BJ-TERT fibroblast viability loss – cell-based, RAS-independent, luminescence, dose response (AID 1933); assay type: functional; details: Homo sapiens
[24] = target: Alkaline phosphatase, placental type (Homo sapiens, UniProt P05187); assay: human placental alkaline phosphatase inhibition – biochemical, luminescence, confirmation (AID 1512); assay type: functional
[25] = target: Kappa-type opioid receptor (Homo sapiens, UniProt P41145); assay type: functional
Chain of Kappa-type opioid receptor (P41145 whole entry): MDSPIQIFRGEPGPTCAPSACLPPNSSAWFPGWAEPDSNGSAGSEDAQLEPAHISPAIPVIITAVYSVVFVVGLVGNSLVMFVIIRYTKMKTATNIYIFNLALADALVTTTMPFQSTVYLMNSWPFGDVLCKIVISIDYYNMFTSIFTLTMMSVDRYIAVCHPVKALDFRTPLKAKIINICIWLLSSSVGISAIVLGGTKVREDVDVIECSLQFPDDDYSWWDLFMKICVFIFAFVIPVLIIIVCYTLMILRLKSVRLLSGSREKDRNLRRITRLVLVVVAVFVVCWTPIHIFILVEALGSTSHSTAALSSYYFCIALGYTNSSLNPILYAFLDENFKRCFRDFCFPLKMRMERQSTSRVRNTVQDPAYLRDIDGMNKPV

[26] = fluconazole-exposed Candida albicans growth modulators – fluorescence, retest, confirmation (AID 2467); assay type: functional, cell-based
cells = assay type: functional
Hexokinase HKDC1 [27] = target: T2, Hexokinase HKDC1; assay: inhibition of HKDC1 glucose phosphorylation – biochemical, W721R variant, dose response (AID 504729); assay type: functional

Cc1cnc(NC(=O)c2sc3ccccc3c2Cl)s1
active: IC50 [1] 3.78 µM

O=C1NC(=S)SC1=C1C(=O)Nc2ccc(Br)cc21
active: Ki [2] 5.01 µM | Ki [4] 631 nM | Ki [5] 794 nM | Ki [6] 200 nM | Ki [14] 631 nM | Ki [17] 1.26 µM | Ki [22] 2 µM
inactive: Ki [3] > 2 µM | Ki [7] > 2 µM | Ki [8] > 1.58 µM | Ki [9] > 10 µM | Ki (Insulin receptor) > 5.01 µM | Ki [10] > 7.94 µM | Ki [11] > 5.01 µM | Ki [12] > 1.58 µM | Ki [13] > 7.94 µM | Ki [15] > 6.31 µM | Ki [16] > 6.31 µM | Ki [18] > 2 µM | Ki [19] > 2 µM | Ki [20] > 7.94 µM | Ki [21] > 7.94 µM

O=C1C(Cl)=C(NCc2cccnc2)C(=O)c2ccccc21
inactive: EC50 (Hexokinase-1) 30.8 µM
active: EC50 (Hexokinase HKDC1 [23]) 9.25 µM

Cc1ccc(Nc2cc(C)nn2-c2nc(C)cc(O)n2)cc1
< 4.49: pIC50 [25]
active: EC50 (BJ) 549 nM | EC50 [26] < 30 nM
inactive: IC50 [24] > 100 µM

Nc1ccc(Br)c2cccnc12
active: IC50 (cells) > 50 µM

Cc1ccc(C(=O)c2c(C)oc3c2C(=O)C(=O)c2ccccc2-3)cc1
active: IC50 (Hexokinase HKDC1 [27]) 6.94 µM
